Values joined by “and” are separate entries in the source; they are usually repeats but may differ in a detail not shown here. Identical values can stand only once. “Also recorded” adds a separate entry of the source. Like-named read-outs stand apart in the source and are kept apart here.
Experiments:
[1] = target: LC3B (Homo sapiens, UniProt Q9GZQ8); assay: FP assay with Cy5-labelled p62 LIR tracer (protein titration and tracer displacement); format: binding; details: for normalized FP signal, p62 LIR tracer displacement: LC3B; for compound titration LC3B (displacement curve, FP signal): two replicate columns per compound
[2] = system: RPE-1 GFP-LC3B-RPF-LC3∆G reporter cell line; assay: Autophagy flux assay; format: cell-based; details: rebuttal letter
[3] = target: GABARAPL2 (Homo sapiens, UniProt P60520); details: for CSP: GABARAPL2:ligand molar ratio 1:2; for 3D Mapping code: molar ratio 1:2
[4] = log10 concentration [M] -3.82391
[5] = log10 concentration [M] -4.1549
[6] = log10 concentration [M] -4.60206
[7] = log10 concentration [M] -5.30103
[8] = log10 concentration [M] -5.69897
[9] = log10 concentration [M] -6.22185
[10] = log10 concentration [M] -6.69897
[11] = log10 concentration [M] -7.30103
[12] = log10 concentration [M] -7.79588
[13] = log10 concentration [M] -8.08092

Sequence of GABARAPL2 (P60520 whole entry): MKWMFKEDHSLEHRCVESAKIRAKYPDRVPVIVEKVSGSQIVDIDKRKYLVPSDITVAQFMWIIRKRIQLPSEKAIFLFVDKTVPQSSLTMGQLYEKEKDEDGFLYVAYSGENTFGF

O=C1Nc2ccc(I)cc2C1=Cc1cc(Br)c(O)c(Br)c1 [compound 4]
normalized FP signal, p62 LIR tracer displacement [1, 4]: 84.7368 | normalized FP signal, p62 LIR tracer displacement [1, 5]: 89.2105 | normalized FP signal, p62 LIR tracer displacement [1, 6]: 90.7895 | normalized FP signal, p62 LIR tracer displacement ([1]; log10 concentration [M] -5): 95 | normalized FP signal, p62 LIR tracer displacement [1, 7]: 93.9474 and 101.579 | normalized FP signal, p62 LIR tracer displacement [1, 8]: 91.0526 | normalized FP signal, p62 LIR tracer displacement [1, 9]: 96.5789 | normalized FP signal, p62 LIR tracer displacement [1, 10]: 94.2105 and 95.5263 | normalized FP signal, p62 LIR tracer displacement [1, 11]: 96.3158 and 90.2632 | normalized FP signal, p62 LIR tracer displacement [1, 12]: 96.5789 | normalized FP signal, p62 LIR tracer displacement [1, 13]: 96.0526 and 95.2632 | compound titration LC3B (displacement curve, FP signal) [1, 4]: 84.7368 and 89.4737 | compound titration LC3B (displacement curve, FP signal) [1, 5]: 89.4737 and 89.2105 | compound titration LC3B (displacement curve, FP signal) [1, 6]: 90.7895 and 93.1579 | compound titration LC3B (displacement curve, FP signal) ([1]; log10 concentration [M] -5): 95 and 100.526 | compound titration LC3B (displacement curve, FP signal) [1, 7]: 93.9474 and 101.579 | compound titration LC3B (displacement curve, FP signal) [1, 8]: 91.0526 | compound titration LC3B (displacement curve, FP signal) [1, 9]: 96.5789 and 94.4737 | compound titration LC3B (displacement curve, FP signal) [1, 10]: 94.2105 and 95.5263 | compound titration LC3B (displacement curve, FP signal) [1, 11]: 96.3158 and 90.2632 | compound titration LC3B (displacement curve, FP signal) [1, 12]: 93.1579 and 96.5789 | compound titration LC3B (displacement curve, FP signal) [1, 13]: 96.0526 and 95.2632 | autophagy induction (autophagy flux) [2]: did not induce autophagy | effects on cell growth (Incucyte life cell imaging) [2]: No induction of autophagy or effects | interaction in 2D NMR titration ([3]; GABARAPL2, listed as 10O5): only 10O5 (4) was able to interact with GABARAPL2; also recorded: prominent CSP | CSP induced, K48 HN resonance ([3]; Molar ratio 10O5:GABARAPL2 0.5): 0.08111 | CSP induced, L50 HN resonance ([3]; Molar ratio 10O5:GABARAPL2 0.5): 0.0416 | CSP induced, R28 HN resonance ([3]; Molar ratio 10O5:GABARAPL2 0.5): 0.0281 | CSP induced, V16 HN resonance ([3]; Molar ratio 10O5:GABARAPL2 0.5): 0.00761 | CSP induced, V31 HN resonance ([3]; Molar ratio 10O5:GABARAPL2 0.5): 0.04746 | CSP induced, Y109 HN resonance ([3]; Molar ratio 10O5:GABARAPL2 0.5): 0.01545 | CSP induced, K48 HN resonance ([3]; Molar ratio 10O5:GABARAPL2 1): 0.1338 | CSP induced, L50 HN resonance ([3]; Molar ratio 10O5:GABARAPL2 1): 0.06831 | CSP induced, R28 HN resonance ([3]; Molar ratio 10O5:GABARAPL2 1): 0.04204 | CSP induced, V16 HN resonance ([3]; Molar ratio 10O5:GABARAPL2 1): 0.03636 | CSP induced, V31 HN resonance ([3]; Molar ratio 10O5:GABARAPL2 1): 0.08123 | CSP induced, Y109 HN resonance ([3]; Molar ratio 10O5:GABARAPL2 1): 0.03416 | CSP induced, K48 HN resonance ([3]; Molar ratio 10O5:GABARAPL2 2): 0.1662 | CSP induced, L50 HN resonance ([3]; Molar ratio 10O5:GABARAPL2 2): 0.09155 | CSP induced, R28 HN resonance ([3]; Molar ratio 10O5:GABARAPL2 2): 0.06538 | CSP induced, V16 HN resonance ([3]; Molar ratio 10O5:GABARAPL2 2): 0.05012 | CSP induced, V31 HN resonance ([3]; Molar ratio 10O5:GABARAPL2 2): 0.1265 | CSP induced, Y109 HN resonance ([3]; Molar ratio 10O5:GABARAPL2 2): 0.04477 | CSP induced, K48 HN resonance ([3]; Molar ratio 10O5:GABARAPL2 4): 0.2294 | CSP induced, L50 HN resonance ([3]; Molar ratio 10O5:GABARAPL2 4): 0.1327 | CSP induced, R28 HN resonance ([3]; Molar ratio 10O5:GABARAPL2 4): 0.07911 | CSP induced, V16 HN resonance ([3]; Molar ratio 10O5:GABARAPL2 4): 0.07334 | CSP induced, V31 HN resonance ([3]; Molar ratio 10O5:GABARAPL2 4): 0.1464 | CSP induced, Y109 HN resonance ([3]; Molar ratio 10O5:GABARAPL2 4): 0.06741 | CSP ([3]; residue A19): 0.086 ppm | 3D Mapping code ([3]; residue A19): Orange | CSP ([3]; residue A23): 0.058 ppm | 3D Mapping code ([3]; residue A23): Orange | CSP ([3]; residue A58): 0.016 ppm | CSP ([3]; residue A75): 0.00255 ppm | CSP ([3]; residue A108): 0.017 ppm | CSP ([3]; residue C15): 0.019 ppm | CSP ([3]; residue D8): 0.007 ppm | CSP ([3]; residue D27): 0.029 ppm | 3D Mapping code ([3]; residue D27): Light green | CSP ([3]; residue D43): 0.009 ppm | CSP ([3]; residue D45): 0.030 ppm | 3D Mapping code ([3]; residue D45): Light green | CSP ([3]; residue D54): 0.029 ppm | 3D Mapping code ([3]; residue D54): Light green | CSP ([3]; residue D81): 0.022 ppm | CSP ([3]; residue D100): 0.018 ppm | CSP ([3]; residue D102): 0.033 ppm | 3D Mapping code ([3]; residue D102): Light green | CSP ([3]; residue E7): 0.029 ppm | 3D Mapping code ([3]; residue E7): Light green | CSP ([3]; residue E12): 0.015 ppm | CSP ([3]; residue E17): 0.081 ppm | 3D Mapping code ([3]; residue E17): Orange | CSP ([3]; residue E34): 0.060 ppm | 3D Mapping code ([3]; residue E34): Orange | CSP ([3]; residue E73): 0.00458 ppm | CSP ([3]; residue E96): 0.019 ppm | CSP ([3]; residue E98): 0.025 ppm | CSP ([3]; residue E101): 0.007 ppm | CSP ([3]; residue E112): 0.00563 ppm | CSP ([3]; residue F60): 0.00542 ppm | CSP ([3]; residue F77): 0.006 ppm | CSP ([3]; residue F79): 0.007 ppm | CSP ([3]; residue F104): 0.059 ppm | 3D Mapping code ([3]; residue F104): Orange | CSP ([3]; residue F115): 0.012 ppm | CSP ([3]; residue G38): 0.040 ppm | 3D Mapping code ([3]; residue G38): Light green | CSP ([3]; residue G103): 0.019 ppm | CSP ([3]; residue G111): 0.010 ppm | CSP ([3]; residue G116): 0.007 ppm | CSP ([3]; residue H9): 0.008 ppm | CSP ([3]; residue H13): 0.031 ppm | 3D Mapping code ([3]; residue H13): Light green | CSP ([3]; residue I21): 0.054 ppm | 3D Mapping code ([3]; residue I21): Orange | CSP ([3]; residue I32): 0.057 ppm | 3D Mapping code ([3]; residue I32): Blue | CSP ([3]; residue I41): 0.00428 ppm | CSP ([3]; residue I44): 0.029 ppm | 3D Mapping code ([3]; residue I44): Light green | CSP ([3]; residue I55): 0.026 ppm | 3D Mapping code ([3]; residue I55): Light green | CSP ([3]; residue I63): 0.014 ppm | CSP ([3]; residue I64): 0.021 ppm | CSP ([3]; residue I68): 0.021 ppm | CSP ([3]; residue I76): 0.004 ppm | CSP ([3]; residue K2): 0.017 ppm | CSP ([3]; residue K6): 0.023 ppm | CSP ([3]; residue K20): 0.058 ppm | 3D Mapping code ([3]; residue K20): Orange | CSP ([3]; residue K24): 0.015 ppm | CSP ([3]; residue K35): 0.014 ppm | CSP ([3]; residue K46, estimated): 0.050 ppm | 3D Mapping code ([3]; residue K46): Blue | CSP ([3]; residue K48): 0.168 ppm | 3D Mapping code ([3]; residue K48): Blue | CSP ([3]; residue K66): 0.020 ppm | CSP ([3]; residue K74): 0.011 ppm | CSP ([3]; residue K97): 0.012 ppm | CSP ([3]; residue K99): 0.018 ppm | CSP ([3]; residue L11): 0.016 ppm | CSP ([3]; residue L50): 0.096 ppm | 3D Mapping code ([3]; residue L50): Blue | CSP ([3]; residue L70): 0.006 ppm | CSP ([3]; residue L78): 0.006 ppm | CSP ([3]; residue L105): 0.060 ppm | 3D Mapping code ([3]; residue L105): Orange | CSP ([3]; residue M1): 0.010 ppm | CSP ([3]; residue M61): 0.015 ppm | CSP ([3]; residue N113): 0.00264 ppm | CSP ([3]; residue P26, estimated): 0.050 ppm | 3D Mapping code ([3]; residue P26): Light green | CSP ([3]; residue P30, estimated): 0.110 ppm | 3D Mapping code ([3]; residue P30): Blue | CSP ([3]; residue P52, estimated): 0.070 ppm | 3D Mapping code ([3]; residue P52): Blue | CSP ([3]; residue P71, estimated): 0.010 ppm | CSP ([3]; residue Q40): 0.017 ppm | CSP ([3]; residue Q59): 0.016 ppm | CSP ([3]; residue Q69): 0.020 ppm | CSP ([3]; residue R14): 0.091 ppm | 3D Mapping code ([3]; residue R14): Orange | CSP ([3]; residue R22): 0.083 ppm | 3D Mapping code ([3]; residue R22): Orange | CSP ([3]; residue R28): 0.064 ppm | 3D Mapping code ([3]; residue R28): Orange | CSP ([3]; residue R47, estimated): 0.100 ppm | 3D Mapping code ([3]; residue R47): Blue | CSP ([3]; residue R65): 0.008 ppm | CSP ([3]; residue R67): 0.00158 ppm | CSP ([3]; residue S10): 0.019 ppm | CSP ([3]; residue S18): 0.021 ppm | CSP ([3]; residue S37): 0.030 ppm | 3D Mapping code ([3]; residue S37): Light green | CSP ([3]; residue S39): 0.017 ppm | CSP ([3]; residue S53): 0.076 ppm | 3D Mapping code ([3]; residue S53): Orange | CSP ([3]; residue S72): 0.004 ppm | CSP ([3]; residue S110): 0.010 ppm | CSP ([3]; residue T56): 0.008 ppm | CSP ([3]; residue T114): 0.00144 ppm | CSP ([3]; residue V16): 0.051 ppm | 3D Mapping code ([3]; residue V16): Light green | CSP ([3]; residue V29): 0.102 ppm | 3D Mapping code ([3]; residue V29): Blue | CSP ([3]; residue V31): 0.128 ppm | 3D Mapping code ([3]; residue V31): Blue | CSP ([3]; residue V33): 0.064 ppm | 3D Mapping code ([3]; residue V33): Orange | CSP ([3]; residue V36): 0.024 ppm | CSP ([3]; residue V42): 0.00232 ppm | CSP ([3]; residue V51): 0.077 ppm | 3D Mapping code ([3]; residue V51): Blue | CSP ([3]; residue V57): 0.024 ppm | CSP ([3]; residue V80): 0.028 ppm | 3D Mapping code ([3]; residue V80): Light green | CSP ([3]; residue V107): 0.039 ppm | 3D Mapping code ([3]; residue V107): Light green | CSP ([3]; residue W3): 0.022 ppm | CSP ([3]; residue W62): 0.016 ppm | CSP ([3]; residue Y25): 0.085 ppm | 3D Mapping code ([3]; residue Y25): Orange | CSP ([3]; residue Y49): 0.148 ppm | 3D Mapping code ([3]; residue Y49): Blue | CSP ([3]; residue Y106): 0.097 ppm | 3D Mapping code ([3]; residue Y106): Orange | CSP ([3]; residue Y109): 0.012 ppm
